Tests used:
Format in all cases: in vivo
Holstein cows [1] = test: Milk production and composition of postpartum cows fed CLA amide supplements
From the text: (§1) One hundred and twenty Holstein cows who were to begin their second or greater lactation are randomly selected to receive one of four Conjugated Linoleic Acid (CLA) supplementation regimens. Control cows receive no supplemental CLA (0 CLA), cows offered Treatment 1 receive the cis-9, trans-11 CLA isomer (9, 11 CLA), cows offered Treatment 2 receive the trans-10, cis-12 CLA isomer (10, 12 CLA) and cows offered Treatment 3 receive both isomers in a 50:50 mix (mixed CLA).
(§2) Isomers of CLA are obtained at 85% purity and are converted to their amide form (unsubstituted) for a rumen bypass rate of 65%. The remaining 15% of the 85% pure CLA isomers are the other isomers of CLA. Treatments 1 and 2 are formulated to deliver 7 grams of each CLA isomer per cow/day at the intestinal level. Therefore, 13 g/cow/day of the respective CLA amides are included in the daily rations offered as Total Mixed Rations (TMR) (i.e., 13 g CLA amide×85% purity×65% rumen bypass=7.18 g intestinal CLA isomer). Treatment 3 is formulated to deliver 7 grams of both isomers per cow per day in the intestine resulting in a 26 g supplement.
Cows are fed their CLA treatments beginning 7 days prepartum and remain on the supplement until 35 days postpartum. To maintain the diets isoenergetic with equal amounts of added fat to the diets, the CLA amides are substituted for Megalac (calcium salts of palm fatty acids). Postpartum diets are offered immediately postpartum.
Prepartum diets are formulated to meet or exceed NRC (2000) requirements at a daily intake of 10.6 kg of DM. This is done to assure that all feed is consumed in a 24-hour period. Postpartum diets are also formulated to meet or exceed requirements for a cow producing (ca.) 45 kg of milk daily at ad libitum consumption of DM.
Cows are milked four times per day to assure maximum expression of production potential and are housed and fed in individual tie-stalls to obtain individual estimates of DMI.
(§3) Other measurements include: Start-up milk production (defined as colostrum milk secreted in the first 24 hours postpartum) analyzed for milk fat and fatty acid composition; Daily milk production and composition (total fat and protein); Daily dry matter intake (DMI); Calculated net energy balance defined as net energy intake minus net energy secreted in milk expressed in megacalories (Mcal) per day.

Holstein cows [2] = test: Calculated net energy balance (net energy intake minus net energy secreted in milk)
From the text: as §1
Isomers of CLA are obtained at 85% purity and are converted to their amide form (unsubstituted) for a rumen bypass rate of 65%. The remaining 15% of the 85% pure CLA isomers are the other isomers of CLA. Treatments 1 and 2 are formulated to deliver 7 grams of each CLA isomer per cow/day at the intestinal level. […]
as §3
Calculated average energy balance postpartum is actual daily […] minus actual daily milk energy outputs.

[3] = system: mammary glands of Holstein cows; test: Mammary gland total parenchymal DNA and RNA-to-DNA ratio at day 15 postpartum; details: excised mammary glands, five cows per treatment
From the text: as §1, §2
Cows are fed their CLA treatments beginning 7 days prepartum and remain on the supplement until 35 days postpartum. To maintain the diets isoenergetic with equal amounts of added fat to the diets, the CLA amides are substituted for Megalac (calcium salts of palm fatty acids). […]

[4] = average for the next 34 days postpartum
[5] = colostrum, first 24 hours postpartum

SMILES: CCCCCC/C=C/C=C\CCCCCCCC(=O)O [9, 11 CLA, cis-9, trans-11 conjugated linoleic acid]
- FCM (fat corrected milk, 4% fat) (Holstein cows [1]; [4]): 36.88a kg/d
- Milk (Holstein cows [1]; [4]): 40.2a kg/d
- Milk fat (Holstein cows [1]; [4]): 1.04a kg/d
- Milk fat % (Holstein cows [1]; [4]): 3.45a %
- SCFA + MCFA:LCFA (ratio of short plus medium chain to long chain fatty acids in milk fat) (Holstein cows [1]; [4]): 58.42b
- Startup milk fat % (Holstein cows [1]; [5]): 8.9c %
- Startup milk fat kg (Holstein cows [1]; [5]): 1.44b kg
- Startup milk (Holstein cows [1]; colostrum, first 24 hours postpartum, 7 g of each CLA isomer/cow/day at intestinal level): 20.2a kg
- Startup FCM (fat corrected milk, 4% fat) (Holstein cows [1]; first 24 hours postpartum): 35.05c kg
- Calculated average energy blance postpartum (Holstein cows [2]; [4]): −1.1c Mcal/d
- Calculated energy balance at the end of day-1 postpartum (Holstein cows [2]; end of day-1 postpartum): −3.6b Mcal
- Total parenchymal DNA, lower compared to 0 CLA group [3]: 18%
